Results taken from ChEMBL document CHEMBL5528037 (J Med Chem, 2024).
The source made the active and inactive calls. The rule behind the calls is not given here.

Legend:
[1] = target: Epidermal growth factor receptor (Homo sapiens, UniProt P00533, L858R); assay: Inhibition of EGFR L858R mutant (unknown origin) harboring cysteine at alphaD-1 position by LanthaScreen assay
[2] = target: T1, Tyrosine-protein kinase JAK3 (Homo sapiens, UniProt P52333); assay: Inhibition of JAK3 (unknown origin) harboring cysteine at alphaD-1 position by LanthaScreen assay
T1 sequence (P52333 whole entry): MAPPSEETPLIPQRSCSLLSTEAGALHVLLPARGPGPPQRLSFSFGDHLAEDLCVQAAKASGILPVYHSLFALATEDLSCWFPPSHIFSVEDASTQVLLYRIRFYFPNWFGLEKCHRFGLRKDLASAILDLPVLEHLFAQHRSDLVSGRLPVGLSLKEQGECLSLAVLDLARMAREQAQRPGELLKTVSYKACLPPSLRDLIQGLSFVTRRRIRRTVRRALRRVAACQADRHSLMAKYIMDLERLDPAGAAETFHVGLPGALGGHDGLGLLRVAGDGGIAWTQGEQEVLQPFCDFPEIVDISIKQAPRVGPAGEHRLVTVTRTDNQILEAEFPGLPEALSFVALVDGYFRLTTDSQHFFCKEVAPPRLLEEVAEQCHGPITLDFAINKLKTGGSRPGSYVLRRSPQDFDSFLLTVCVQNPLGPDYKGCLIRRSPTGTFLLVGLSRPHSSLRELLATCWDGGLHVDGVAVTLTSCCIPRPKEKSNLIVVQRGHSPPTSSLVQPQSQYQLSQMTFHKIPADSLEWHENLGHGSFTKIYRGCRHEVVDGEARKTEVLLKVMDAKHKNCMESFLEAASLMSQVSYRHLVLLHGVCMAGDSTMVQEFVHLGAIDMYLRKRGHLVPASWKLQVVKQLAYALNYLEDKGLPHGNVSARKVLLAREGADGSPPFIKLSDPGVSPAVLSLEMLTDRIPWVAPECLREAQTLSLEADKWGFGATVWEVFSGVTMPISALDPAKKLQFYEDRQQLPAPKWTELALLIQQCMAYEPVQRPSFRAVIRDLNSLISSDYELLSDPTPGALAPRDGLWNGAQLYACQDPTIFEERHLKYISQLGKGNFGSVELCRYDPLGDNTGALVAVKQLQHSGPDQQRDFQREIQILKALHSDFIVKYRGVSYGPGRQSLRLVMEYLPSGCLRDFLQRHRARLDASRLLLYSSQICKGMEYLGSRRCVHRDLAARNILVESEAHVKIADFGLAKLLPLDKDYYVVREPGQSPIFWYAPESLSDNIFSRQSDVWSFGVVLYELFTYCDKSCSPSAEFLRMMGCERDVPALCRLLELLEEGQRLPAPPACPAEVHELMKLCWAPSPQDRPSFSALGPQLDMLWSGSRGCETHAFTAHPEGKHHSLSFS

[3] = target: T2, Tyrosine-protein kinase BTK (Homo sapiens, UniProt Q06187); assay: Inhibition of BTK (unknown origin) harboring cysteine at alphaD-1 position by LanthaScreen assay
[4] = target: T3, Tyrosine-protein kinase Blk (Homo sapiens, UniProt P51451); assay: Inhibition of BLK (unknown origin) harboring cysteine at alphaD-1 position by LanthaScreen assay
[5] = target: T3, Tyrosine-protein kinase Blk; assay: Displacement of K-4 tracer from wild type BLK in HEK293T cells expressing NanoLuc preincubated for 3 hrs followed by tracer addition and measured after 1 hr by NanoBRET analysis; assay type: cell-based
[6] = target: T2, Tyrosine-protein kinase BTK; assay: Displacement of K-10 tracer from wild type BTK in HEK293T cells expressing NanoLuc preincubated for 3 hrs followed by tracer addition and measured after 1 hr by NanoBRET analysis; assay type: cell-based
BaF3 [7] = assay: Inhibition of biotinylated osimertinib binding to EGFR L858R mutant in mouse BaF3 cells at 0.2 to 10 uM preincubated for 3 hrs followed by biotinylated osimertinib addition and incubated overnight by competitive pulldown based Western blot analysis; assay type: cell-based; conditions: dose 0.2-10 µM
[8] = target: T2, Tyrosine-protein kinase BTK; assay: Inhibition of biotinylated ibrutinib binding to BTK in human MINO cells at 0.2 to 10 uM preincubated for 3.5 hrs followed by biotinylated ibrutinib addition and incubated overnight by competitive pulldown based Western blot analysis; assay type: cell-based; conditions: dose 0.2-10 µM
[9] = target: Epidermal growth factor receptor (Mus musculus) (UniProt Q01279); assay: Inhibition of EGFR phosphorylation at Y1068 residue in mouse Ba/F3 EGFR-L858R cells at 0.2 to 10 uM incubated for 6 hrs by Western blot analysis; assay type: cell-based; conditions: dose 0.2-10 µM
[10] = target: Mitogen-activated protein kinase 1 and 3 (ERK2 and ERK1) (Mus musculus) (UniProt P63085+Q63844); assay: Inhibition of ERK1/2 phosphorylation at T202/Y204 residues in mouse Ba/F3 EGFR-L858R cells at 0.2 to 10 uM incubated for 6 hrs by Western blot analysis; assay type: cell-based; conditions: dose 0.2-10 µM
[11] = target: RAC-alpha serine/threonine-protein kinase (Mus musculus) (UniProt P31750); assay: Inhibition of AKT phosphorylation at S473 residue in mouse Ba/F3 EGFR-L858R cells at 0.2 to 10 uM incubated for 6 hrs by Western blot analysis; assay type: cell-based; conditions: dose 0.2-10 µM
cells = conditions: Mus musculus, Ba/F3 EGFR-L858R, 72 h
Description: Antiproliferative activity against mouse Ba/F3 EGFR-L858R cells assessed as inhibition of cell proliferation measured after 3 days by CellTiter-Glo assay

BaF3 [12] = assay: cells; conditions: Mus musculus, BaF3, 72 h
[13] = target: Epidermal growth factor receptor (Homo sapiens) (UniProt P00533); assay: Binding affinity to N-terminal protease cleavable His-GST tagged wild type human EGFR (696 to 1022 residues) expressed as baculovirus infected Sf9 cells assessed as mass shift at 10 fold molar excess incubated for 2 hrs by LC-MS/MS analysis
[14] = test system: Epidermal growth factor receptor (Homo sapiens), P00533 [L858R,T790M]; assay: Binding affinity to Cys797 residue of trypsin digested EGFR L858R/T790M mutant (unknown origin) by Nano-LC-MS/MS analysis
[15] = target: T2, Tyrosine-protein kinase BTK; assay: Binding affinity to human BTK harboring cysteine at alphaD-1 position at 10 uM by Kinomescan analysis
[16] = target: T4, Tyrosine-protein kinase JAK3 (Homo sapiens) (UniProt P52333); assay: Binding affinity to human JAK3 JH1 domain harboring cysteine at alphaD-1 position at 10 uM by Kinomescan analysis
T4 sequence (whole entry): T1 sequence (P52333 whole entry)

[17] = target: Epidermal growth factor receptor (Homo sapiens) (UniProt P00533); assay: Binding affinity to human EGFR harboring cysteine at alphaD-1 position at 10 uM by Kinomescan analysis
[18] = target: T5, Dual specificity mitogen-activated protein kinase kinase 7 (Homo sapiens) (UniProt O14733); assay: Binding affinity to human MKK7 harboring cysteine at alphaD-1 position at 10 uM by Kinomescan analysis
T5 sequence (whole entry): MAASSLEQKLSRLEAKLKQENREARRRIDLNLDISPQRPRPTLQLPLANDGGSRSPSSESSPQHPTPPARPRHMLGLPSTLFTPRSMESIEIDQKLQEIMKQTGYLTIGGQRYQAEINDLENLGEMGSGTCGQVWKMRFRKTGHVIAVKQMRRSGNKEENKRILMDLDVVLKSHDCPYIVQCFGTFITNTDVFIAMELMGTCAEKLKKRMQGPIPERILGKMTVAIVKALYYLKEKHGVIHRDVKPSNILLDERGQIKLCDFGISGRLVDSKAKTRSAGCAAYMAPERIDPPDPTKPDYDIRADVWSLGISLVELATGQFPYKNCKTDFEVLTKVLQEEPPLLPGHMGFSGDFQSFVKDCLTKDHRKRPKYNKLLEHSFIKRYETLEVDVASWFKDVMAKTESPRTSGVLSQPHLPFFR

[19] = target: T6, Dual specificity mitogen-activated protein kinase kinase 5 (Homo sapiens, UniProt Q13163); assay: Inhibition of MEK5 (unknown origin) by LanthaScreen assay
T6 sequence (Q13163 whole entry): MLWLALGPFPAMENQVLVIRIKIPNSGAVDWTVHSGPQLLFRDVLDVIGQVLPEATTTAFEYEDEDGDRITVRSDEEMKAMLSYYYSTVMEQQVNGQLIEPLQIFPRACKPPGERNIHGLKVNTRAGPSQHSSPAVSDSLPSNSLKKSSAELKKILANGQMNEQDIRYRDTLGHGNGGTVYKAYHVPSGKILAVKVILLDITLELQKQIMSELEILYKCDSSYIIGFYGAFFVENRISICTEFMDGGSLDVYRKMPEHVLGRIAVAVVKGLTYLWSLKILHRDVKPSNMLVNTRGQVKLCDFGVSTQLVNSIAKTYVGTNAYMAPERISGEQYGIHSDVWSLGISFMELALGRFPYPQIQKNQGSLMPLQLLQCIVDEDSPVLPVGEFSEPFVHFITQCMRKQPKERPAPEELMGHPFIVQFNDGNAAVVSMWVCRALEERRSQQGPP

[20] = target: T2, Tyrosine-protein kinase BTK; assay: Binding affinity to BTK (unknown origin) assessed as covalent bond formation by measuring cysteine 481-labeling by mass spectrometry analysis relative to control
[21] = target: T4, Tyrosine-protein kinase JAK3 (Homo sapiens); assay: Binding affinity to JAK3 JH1 domain (unknown origin) assessed as covalent bond formation by measuring cysteine 909-labeling by mass spectrometry analysis relative to control
[22] = test system: Tyrosine-protein kinase BTK (Homo sapiens), Q06187 [C481S]; assay: Displacement of K-10 tracer from BTK C481S mutant in HEK293T cells expressing NanoLuc preincubated for 3 hrs followed by tracer addition and measured after 1 hr by NanoBRET analysis; assay type: cell-based; conditions: time 4.0 hrs
HEK293T = assay: Displacement of K-4 tracer from BLK C319S mutant in HEK293T cells expressing NanoLuc preincubated for 3 hrs followed by tracer addition and measured after 1 hr by NanoBRET analysis; assay type: cell-based; conditions: Homo sapiens, time 4.0 hrs
BaF3 [23] = assay: Inhibition of biotinylated osimertinib binding to EGFR L858R mutant in mouse BaF3 cells preincubated for 3 hrs followed by biotinylated osimertinib addition and incubated overnight by competitive pulldown based Western blot analysis; assay type: cell-based; conditions: dose 0.2-10 µM

T2 sequence (Q06187 whole entry): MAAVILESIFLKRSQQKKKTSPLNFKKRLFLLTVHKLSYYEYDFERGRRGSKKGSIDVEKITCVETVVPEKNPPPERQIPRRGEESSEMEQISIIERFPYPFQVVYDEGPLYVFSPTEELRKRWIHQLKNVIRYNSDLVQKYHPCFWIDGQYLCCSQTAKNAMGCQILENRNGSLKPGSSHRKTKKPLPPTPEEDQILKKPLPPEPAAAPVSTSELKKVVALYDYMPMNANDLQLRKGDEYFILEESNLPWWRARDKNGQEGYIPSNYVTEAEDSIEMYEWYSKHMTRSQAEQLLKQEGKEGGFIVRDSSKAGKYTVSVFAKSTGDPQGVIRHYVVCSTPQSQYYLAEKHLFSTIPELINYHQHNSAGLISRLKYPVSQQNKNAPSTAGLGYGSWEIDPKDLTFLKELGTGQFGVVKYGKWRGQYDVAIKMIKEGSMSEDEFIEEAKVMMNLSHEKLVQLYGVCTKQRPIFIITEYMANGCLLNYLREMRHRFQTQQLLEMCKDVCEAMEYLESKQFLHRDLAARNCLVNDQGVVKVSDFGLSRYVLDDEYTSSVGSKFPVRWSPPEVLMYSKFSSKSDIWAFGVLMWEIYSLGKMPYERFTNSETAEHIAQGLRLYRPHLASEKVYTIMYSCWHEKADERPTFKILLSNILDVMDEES
Chain of Mitogen-activated protein kinase 1 and 3 (ERK2 and ERK1) (Mus musculus) (P63085 whole entry, looked up): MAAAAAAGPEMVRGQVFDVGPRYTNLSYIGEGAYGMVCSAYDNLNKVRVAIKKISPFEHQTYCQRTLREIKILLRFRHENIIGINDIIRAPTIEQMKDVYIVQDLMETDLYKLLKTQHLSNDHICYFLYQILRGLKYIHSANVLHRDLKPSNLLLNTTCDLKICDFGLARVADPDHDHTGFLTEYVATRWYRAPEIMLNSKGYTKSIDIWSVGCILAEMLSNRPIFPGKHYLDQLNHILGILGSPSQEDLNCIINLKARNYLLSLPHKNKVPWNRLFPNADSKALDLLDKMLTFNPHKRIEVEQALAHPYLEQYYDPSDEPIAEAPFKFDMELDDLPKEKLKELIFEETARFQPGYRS
Chain of Mitogen-activated protein kinase 1 and 3 (ERK2 and ERK1) (Mus musculus) (Q63844 whole entry, looked up): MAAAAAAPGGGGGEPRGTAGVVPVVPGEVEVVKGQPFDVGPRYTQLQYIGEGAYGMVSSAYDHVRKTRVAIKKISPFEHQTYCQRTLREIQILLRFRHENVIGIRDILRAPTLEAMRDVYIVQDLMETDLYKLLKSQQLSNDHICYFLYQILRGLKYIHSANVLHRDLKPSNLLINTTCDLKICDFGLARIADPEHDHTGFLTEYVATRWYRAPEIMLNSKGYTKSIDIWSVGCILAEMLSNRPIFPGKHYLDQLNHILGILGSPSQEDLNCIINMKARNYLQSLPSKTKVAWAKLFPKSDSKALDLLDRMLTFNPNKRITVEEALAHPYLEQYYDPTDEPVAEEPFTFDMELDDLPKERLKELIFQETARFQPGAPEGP
T3 sequence (P51451 whole entry): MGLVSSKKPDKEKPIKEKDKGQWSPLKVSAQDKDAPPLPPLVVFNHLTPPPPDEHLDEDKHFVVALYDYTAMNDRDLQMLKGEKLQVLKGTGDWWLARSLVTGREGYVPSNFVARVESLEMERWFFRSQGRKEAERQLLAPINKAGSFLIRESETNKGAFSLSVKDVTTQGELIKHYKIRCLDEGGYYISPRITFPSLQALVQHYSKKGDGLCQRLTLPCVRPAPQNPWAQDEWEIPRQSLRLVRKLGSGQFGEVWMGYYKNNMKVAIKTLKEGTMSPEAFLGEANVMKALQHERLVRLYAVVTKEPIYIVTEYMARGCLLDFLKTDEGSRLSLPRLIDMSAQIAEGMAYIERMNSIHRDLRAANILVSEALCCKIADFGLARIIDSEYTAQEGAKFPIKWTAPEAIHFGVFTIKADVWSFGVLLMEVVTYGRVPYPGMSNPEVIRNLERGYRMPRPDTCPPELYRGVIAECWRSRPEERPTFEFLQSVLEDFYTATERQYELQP
Chain of Epidermal growth factor receptor (Mus musculus) (Q01279 whole entry): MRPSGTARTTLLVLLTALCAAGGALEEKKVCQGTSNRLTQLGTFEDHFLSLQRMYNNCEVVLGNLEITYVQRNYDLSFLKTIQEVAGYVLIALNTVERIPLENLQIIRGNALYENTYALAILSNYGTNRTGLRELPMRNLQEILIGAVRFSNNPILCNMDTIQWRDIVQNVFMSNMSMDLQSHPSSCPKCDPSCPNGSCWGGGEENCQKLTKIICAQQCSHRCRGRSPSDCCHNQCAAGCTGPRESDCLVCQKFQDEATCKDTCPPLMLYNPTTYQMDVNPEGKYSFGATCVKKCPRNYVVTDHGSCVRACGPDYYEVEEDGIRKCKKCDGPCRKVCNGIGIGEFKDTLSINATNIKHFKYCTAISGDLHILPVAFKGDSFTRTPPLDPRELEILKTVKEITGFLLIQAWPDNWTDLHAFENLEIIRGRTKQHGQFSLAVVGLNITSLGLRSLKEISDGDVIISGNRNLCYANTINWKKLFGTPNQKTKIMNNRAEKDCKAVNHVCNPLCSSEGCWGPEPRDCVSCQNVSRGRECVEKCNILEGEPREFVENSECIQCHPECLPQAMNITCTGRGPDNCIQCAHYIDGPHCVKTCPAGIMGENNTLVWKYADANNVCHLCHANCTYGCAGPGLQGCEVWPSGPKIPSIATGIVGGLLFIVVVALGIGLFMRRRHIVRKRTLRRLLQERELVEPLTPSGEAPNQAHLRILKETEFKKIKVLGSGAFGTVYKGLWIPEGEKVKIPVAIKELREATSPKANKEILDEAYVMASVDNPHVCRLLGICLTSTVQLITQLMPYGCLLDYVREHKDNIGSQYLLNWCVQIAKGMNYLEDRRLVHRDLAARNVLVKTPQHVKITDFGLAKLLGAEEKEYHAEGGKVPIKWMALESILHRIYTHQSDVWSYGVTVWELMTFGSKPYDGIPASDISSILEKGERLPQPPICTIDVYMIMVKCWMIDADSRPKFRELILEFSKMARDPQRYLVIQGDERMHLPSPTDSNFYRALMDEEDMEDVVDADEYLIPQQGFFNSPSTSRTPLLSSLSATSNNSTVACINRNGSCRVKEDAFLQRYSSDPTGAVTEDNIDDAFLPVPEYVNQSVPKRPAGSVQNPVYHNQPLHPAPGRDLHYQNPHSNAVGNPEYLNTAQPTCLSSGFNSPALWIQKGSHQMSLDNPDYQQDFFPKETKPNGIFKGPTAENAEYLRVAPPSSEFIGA
Chain of RAC-alpha serine/threonine-protein kinase (Mus musculus) (P31750 whole entry): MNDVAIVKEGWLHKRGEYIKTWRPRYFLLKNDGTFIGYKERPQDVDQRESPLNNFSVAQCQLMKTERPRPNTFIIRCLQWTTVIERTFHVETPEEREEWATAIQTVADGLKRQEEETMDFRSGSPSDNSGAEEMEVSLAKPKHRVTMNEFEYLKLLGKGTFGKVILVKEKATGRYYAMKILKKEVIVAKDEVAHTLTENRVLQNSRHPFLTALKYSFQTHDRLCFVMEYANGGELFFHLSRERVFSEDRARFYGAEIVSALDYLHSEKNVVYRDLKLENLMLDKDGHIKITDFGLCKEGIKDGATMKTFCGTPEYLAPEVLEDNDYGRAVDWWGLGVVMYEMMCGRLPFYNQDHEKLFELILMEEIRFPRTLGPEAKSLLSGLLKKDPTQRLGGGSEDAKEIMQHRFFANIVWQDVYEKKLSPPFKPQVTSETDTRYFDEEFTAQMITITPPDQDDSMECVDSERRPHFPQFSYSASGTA
Chain of Tyrosine-protein kinase BTK (Homo sapiens), Q06187 [C481S] (Q06187 whole entry C481S): as the sequence (Q06187 whole entry) above, with C481S counted along it

SMILES	IC50 [1]	IC50 [2]	IC50 [3]	IC50 [6]	inhibition [8]	inhibition [9]	inhibition [10]	inhibition [11]	IC50 (cells)	IC50 (BaF3 [12])	also measured
C=CC(=O)Nc1cc(Nc2nccc(-c3cn(C)c4ccccc34)n2)c(OC)cc1N(C)CCN(C)C [OSIMERTINIB]	–	–	–	–	–	–	–	–	2.4 nM	19 nM	–
C=CC(=O)N1CCCC(Oc2nn(C(C)(C)C)c3ncnc(N)c23)C1 (centres undefined)	–	–	–	–	–	–	–	–	10600 nM	> 10000 nM	–
C=CC(=O)N1CCC(Oc2nn(C(C)(C)C)c3ncnc(N)c23)C1 (centres undefined)	–	–	–	–	–	–	–	–	2400 nM	5990 nM	–

Second part, led by results:

IC50 [1]	IC50 [2]	IC50 [3]	IC50 [6]	inhibition [8]	inhibition [9]	inhibition [10]	inhibition [11]	IC50 (cells)	IC50 (BaF3 [12])	SMILES	also measured
> 10000 nM	> 10000 nM	> 10000 nM	> 30000 nM	inactive	inactive	inactive	inactive	–	–	CCC(=O)N1CC(Oc2nn(C(C)(C)C)c3ncnc(N)c23)C1	IC50 [4]: > 10000 nM; IC50 [5]: > 30000 nM; inhibition (BaF3 [7]): inactive
–	–	–	–	–	–	–	–	604 nM	3620 nM	C=CC(=O)N1CCC(Oc2nn(C(C)(C)C)c3ncnc(N)c23)CC1	–
242 nM	59.2 nM	105 nM	865 nM	Active	Active	Active	Active	–	–	C=CC(=O)N1CC(Oc2nn(C(C)(C)C)c3ncnc(N)c23)C1	Activity [13]: Active; Activity [14]: Active; Activity [15]: Active; Activity [16]: Active; Activity [17]: Active; Activity [18]: Active; IC50 [19]: > 10000 nM; Activity [20]: 80%; Activity [21]: 60%; Activity [22]: inactive; Activity (HEK293T): inactive; inhibition (BaF3 [23]): Dose-Dependent Effect
